Experimental data reported in paper PMC8807947 (Journal of Inflammation Research, 2022).

Columns and labels:
[1] = test system: carrageenan induced edema in rat paw; experiment: Carrageenan induced edema model in rat paw; assay type: in vivo; details: 50 mg/kg oral; for Anti-inflammatory (AI) %, range over time points: range over 1, 3 and 5 h
PGE2 = details: read-out: PGE2 inhibition IC50; cited from earlier work
rats = experiment: Gastric ulcerogenic liability in rats
COX-2 = molecular target: T1, COX-2 (Ovis aries, UniProt P79208); experiment: COX-2 inhibition, enzyme immunoassay; assay type: biochemical, ovine; details: for SI = IC50 (COX-1)/ IC50 (COX-2): selectivity index
T1 sequence (P79208 17-603): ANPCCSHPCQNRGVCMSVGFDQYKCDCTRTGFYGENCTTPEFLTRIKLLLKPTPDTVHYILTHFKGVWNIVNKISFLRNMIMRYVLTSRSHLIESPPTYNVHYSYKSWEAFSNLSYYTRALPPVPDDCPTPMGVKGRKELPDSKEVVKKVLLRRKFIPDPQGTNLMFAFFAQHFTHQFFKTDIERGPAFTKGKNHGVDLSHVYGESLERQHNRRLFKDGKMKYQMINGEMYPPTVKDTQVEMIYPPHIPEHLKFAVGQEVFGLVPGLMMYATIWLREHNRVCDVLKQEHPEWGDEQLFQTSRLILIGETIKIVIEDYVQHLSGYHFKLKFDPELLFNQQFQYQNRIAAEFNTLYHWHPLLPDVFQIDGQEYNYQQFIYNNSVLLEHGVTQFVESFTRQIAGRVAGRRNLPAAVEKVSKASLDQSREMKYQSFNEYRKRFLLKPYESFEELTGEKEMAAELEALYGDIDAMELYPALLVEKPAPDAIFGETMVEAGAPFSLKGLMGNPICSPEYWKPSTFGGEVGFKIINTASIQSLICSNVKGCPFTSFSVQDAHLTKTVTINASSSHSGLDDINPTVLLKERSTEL

COX-1 = molecular target: T2, COX-1 (Ovis aries, UniProt P05979); experiment: COX-1 inhibition, enzyme immunoassay; assay type: biochemical, ovine
T2 sequence (P05979 25-600): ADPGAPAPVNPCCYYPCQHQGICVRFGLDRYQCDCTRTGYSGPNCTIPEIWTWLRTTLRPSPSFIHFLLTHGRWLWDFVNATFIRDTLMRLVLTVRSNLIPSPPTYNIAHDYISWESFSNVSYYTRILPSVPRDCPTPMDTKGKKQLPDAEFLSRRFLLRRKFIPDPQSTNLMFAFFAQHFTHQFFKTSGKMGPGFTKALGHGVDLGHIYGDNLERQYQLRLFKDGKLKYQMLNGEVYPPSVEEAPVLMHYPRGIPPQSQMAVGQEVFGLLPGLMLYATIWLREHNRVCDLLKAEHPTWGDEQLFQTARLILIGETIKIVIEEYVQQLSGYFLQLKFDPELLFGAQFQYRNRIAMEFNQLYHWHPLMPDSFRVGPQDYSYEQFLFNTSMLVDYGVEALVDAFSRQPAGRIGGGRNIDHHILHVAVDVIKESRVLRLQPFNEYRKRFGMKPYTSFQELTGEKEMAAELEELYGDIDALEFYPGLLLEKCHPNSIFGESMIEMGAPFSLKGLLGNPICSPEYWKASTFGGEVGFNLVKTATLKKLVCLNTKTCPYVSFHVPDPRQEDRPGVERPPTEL

interleukin IL-6 = details: cited from earlier work
TNF-ὰ = details: cited from earlier work

Compound | Anti-Inflammatory Activity % (AI) ([1]; 1 h) | Paw edema (change of paw dimensions), mean ± SEM ([1]; 1 h) | Anti-Inflammatory Activity % (AI) ([1]; 3 h) | Paw edema (change of paw dimensions), mean ± SEM ([1]; 3 h) | Anti-Inflammatory Activity % (AI) ([1]; 5 h) | Paw edema (change of paw dimensions), mean ± SEM ([1]; 5 h) | IC50 (PGE2) | Relative Ulcerogenicity to Celecoxib (rats) | Ulcer Index (rats) | Ulcer Number (rats) | IC50 (COX-2) | SI = IC50 (COX-1)/ IC50 (COX-2) (COX-2) | Anti-inflammatory (AI) %, range over time points [1] | IC50 (COX-1) | inhibition of interleukin IL-6 (interleukin IL-6) | inhibition of TNF-ὰ (TNF-ὰ)
Cc1ccc(-c2cc(C(F)(F)F)nn2-c2ccc(S(N)(=O)=O)cc2)cc1 [Celecoxib, reference compound] | 43% | 0.83 ± 0.09 | 43% | 0.80 ± 0.11 | 54% | 0.65 ± 0.10 | 100 nM | 1 | 3.00 ± 0.09 | 3.25 ± 0.17 |  |  |  |  |  | 
CCOC(=O)c1ccc(/N=N/c2ccc(O)c(C3c4c([nH]c(=S)[nH]c4=O)Nc4[nH]c(=S)[nH]c(=O)c43)c2)cc1 [IIIf, Ethyl (E)-4-((3-(4,6-Dioxo-2,8-Dithioxo-1,2,3,4,5,6,7,8,9,10-Decahydropyrido[2,3-D:6,5-D’]Dipyrimidin-5-Yl)-4-Hydroxyphenyl)Diazenyl)Benzoate] | 52% |  | 59% | 0.58 ± 0.11 | 66% | 0.48 ± 0.14 |  | 1.25 | 3.75 ± 0.11 | 3.75 ± 0.15 | 950 ± 10 nM | 11.82 | 52–66% | 11200 ± 270 nM |  | 
C[C@@H]1C[C@H]2[C@@H]3CCC4=CC(=O)C=C[C@]4(C)[C@@]3(F)[C@@H](O)C[C@]2(C)[C@@]1(O)C(=O)CO [dexamethasone] |  |  |  |  |  |  |  |  |  |  |  |  |  |  | 86% | 72%
CCOC(=O)c1ccc(/N=N/c2cc(C3c4c([nH]c(=S)[nH]c4=O)Nc4[nH]c(=S)[nH]c(=O)c43)c(OC)cc2OC)cc1 [IIIh, Ethyl (E)-4-((5-(4,6-Dioxo-2,8-Dithioxo-1,2,3,4,5,6,7,8,9,10-Decahydropyrido[2,3-D:6,5-D’]Dipyrimidin-5-Yl)-2,4-Dimethoxyphenyl)Diazenyl)Benzoate] | 67% | 0.49 ± 0.05 |  |  | 57% |  |  | 1.75 | 5.25 ± 0.13 | 6.50 ± 0.11 | 2430 ± 70 nM | 3.23 | 57–67% | 7840 ± 160 nM |  | 
COc1ccc2c(c1)c(CC(=O)O)c(C)n2C(=O)c1ccc(Cl)cc1 [Indomethacin, reference compound] |  |  |  |  |  |  |  | 7.5 | 22.5 ± 0.21 | 14.25 ± 0.31 |  |  |  |  |  | 
O=c1[nH]c(=S)[nH]c2c1C(c1cc(/N=N/c3ccc(-c4nc5ccccc5s4)cc3)ccc1O)c1c([nH]c(=S)[nH]c1=O)N2 [IIIi, (E)-5-(5-((4-(Benzo[D]thiazol-2-Yl)Phenyl)Diazenyl)-2-Hydroxyphenyl)-2,8-Dithioxo-2,3,5,8,9,10-Hexahydropyrido[2,3-D:6,5-D’]Dipyrimidine-4,6(1H,7H)-Dione] | 24% | 1.10 ± 0.14 | 43% | 0.80 ± 0.15 | 52% | 0.68 ± 0.13 |  |  |  |  | 690 ± 20 nM | 4.71 |  | 3250 ± 70 nM |  | 
